Test results from patent US11319283B2, “Substituted cyclobutylbenzene compounds as indoleamine 2,3-dioxygenase (IDO) inhibitors” (MERCK SHARP & DOHME CORP., priority 2017, dated 2022).

Key:
Format in all cases: cell-based
TDO = target: T1, TDO (Homo sapiens, UniProt P48775); assay: TDO Cellular Assay in Frozen SW48 Cells; details: 300 uM L-tryptophan, about 48 hours, fluorescence readout
T1 construct: endogenous in cells; host or cells: SW48 cells (A2780 cells as control with minimal TDO activity)
Experimental: TDO Cellular Assay in Frozen SW48 Cells
SW48 cells were cultured in complete RPMI culture medium (90% RPMI, 10% heat-inactivated fetal bovine serum).
Compounds to be tested were serially diluted in ten 3-fold steps in DMSO starting from 10 mM DMSO stocks in Echo low volume plate(s). […] The cells were spun down at 350 g in a table top centrifuge for 5 minutes and suspended in same volume of RPMI assay medium. […] Sterile L-tryptophan (Sigma, Cat # T0254) was added to the cells with final concentration of 300 uM.
SW48 and A2780 cells were dispensed to the respective wells of 384-well assay plates containing the compounds. The plates were incubated for about 48 hours at a 37° C., 5% CO2 incubator. Afterwards, 12 μL of 0.5 M ethyl isonipecotate (Sigma Aldrich, Cat # E33505) in dimethyl sulfoxide were added into each well and the plates were sealed and incubated at 37° C. without CO2 overnight. The plates were centrifuged for 1 minute at 200×g. The resulting fluorescence was measured in a Spectramax plate reader (Molecular Devices) with a 400 nm excitation filter and a 510 nm emission filter.
The fluorescence intensity of each well was corrected for the background observed in wells with A2780 cells and was expressed as a fraction of the intensity observed in wells of SW48 cells and DMSO only. Potencies were calculated by linear least squares fit to the four parameter logistic IC50 equation.

IDO1 [1] = target: T2, IDO1 (Homo sapiens, UniProt P14902); assay: IDO1 Cellular Assay in Hela Cells Stimulated with IFNγ; parameters: endogenous in cells; host or cells: HeLa cells stimulated with IFNγ (100 ng/mL); details: Hela cells stimulated with IFNγ 100 ng/mL, 300 uM L-tryptophan, about 48 hours, fluorescence readout
Experimental: IDO1 Cellular Assay in Hela Cells Stimulated with IFNγ
Hela cells were cultured in complete Hela culture medium (90% EMEM, 10% heat-inactivated fetal bovine serum) and expanded to about 1×10^9 cells. The cells were then collected and frozen down at 1×10^7 cells/vial in 1 mL frozen medium (90% complete Hela culture medium, 10% DMSO)
Compounds to be tested were serially diluted in ten 3-fold steps in DMSO starting from 10 mM DMSO stocks in Echo low volume plate(s).
Frozen Hela cells were thawed and transferred into Hela assay medium (99% complete Hela culture medium, 1% Pen/Strep) with 20 mL medium/vial of cells. The cells were spun down at 250 g in a table top centrifuge for 5 min and suspended in same volume of Hela assay medium. The cells were then counted and adjusted to a density of 2×10^5 cells/ml in Hela assay medium. Sterile L-tryptophan were added to the cells with final concentration of 300 uM L-tryptophan. A small aliquot (2 mL/plate) of Hela cells were set aside and were not treated with IFNγ, to serve as the Max-E control.
Hela cells with and without IFNγ were dispensed to the respective wells of 384-well assay plates containing the compounds. The plates were incubated for about 48 hours at a 37° C., 5% CO2 incubator. Afterwards, […] of 0.5 M methyl isonipecotate in dimethyl sulfoxide were added into each well and the plates were sealed and incubated at 37° C. without CO2 overnight. The plates were centrifuged for 1 min at 200×g. The resulting fluorescence was measured in a Spectramax plate reader (Molecular Devices) with a 400 nm excitation filter and a 510 nm emission filter.
Potencies were calculated by linear least squares fit to the four parameter logistic IC50 equation.

IDO1 [2] = target: T2, IDO1; assay: IDO1 Human Whole Blood Assay; parameters: from tissue; host or cells: human whole blood from healthy donors, stimulated with LPS and IFNγ; details: LPS and IFNγ 100 ng/mL, overnight (18 h), kynurenine by LC/MS/MS
Experimental: IDO1 Human Whole Blood Assay
Compounds to be tested were serially diluted in ten 3-fold steps in DMSO starting from 10 mM. […] LPS and IFNγ was prepared in RPMI to a 10× of final conc. (1000 ng/mL), final concentration is 100 ng/mL.
Human whole blood was drawn in sodium heparin coated tubes from healthy internal donors. […] of blood was transferred to each of the wells of a v-bottom 96 well plate. […] of compound was transferred from intermediate dilution plate, and incubated for 15 min. 30 μL from stimulants was then transferred to blood and mixed thoroughly. Plate was covered with breathable membrane and incubated at 37° C. for overnight (18 h).
On day 2 isotope labeled standard of kynurenine and tryptophan was made in water at 10× concentration and […] was added to the blood at […] final concentration. The assay plates were centrifuged at 300×G for 10 min with no brake to separate plasma from red blood cells. […] of plasma samples was removed without disturbing red blood cells. Plasma was diluted with RPMI in 1:1 ratio and proteins were precipitated out with two volume of Acetonitrile. The plates was centrifuged at 4000×G for 60 min. 20 mL of supernatant was carefully transferred to a 384 well plate contain 40 mL of 0.1% formic acid in water and analyzed by LC/MS/MS.
LC/MS/MS analyses were performed using Thermo Fisher's LX4-TSQ Quantum Ultra system. This system consists of four Agilent binary high-performance liquid chromatography (HPLC) pumps and a TSQ Quantum Ultra triple quadruple MS/MS instrument. For each sample, […] were injected onto an Atlantis T3 column (2.1 mm×150 mm, […]) from Waters. The mobile phase gradient pumped at 0.8 mL/min was used to elute the analytes from the column at 25° C. […] Mobile phase A consisted of 0.1% formic acid in water. Mobile phase B consisted of 0.1% of formic acid in acetonitrile. Data was acquired in positive mode using a HESI interface. The operational parameters for the TSQ Quantum Ultra instrument were a spray voltage of 4000 V, capillary temperature of 380° C., vaporizer temperature 400° C., shealth gas 60 arbitrary units, Aux gas 20 arbitrary units, tube lens 85 and collision gas 1.2 mTorr. […] The peak area was integrated by Xcalibur Quan software. The ratios between the kynurenine generated in the reaction and 2D6-Kynurenine spiked-in internal standard were used to generate percentage inhibition and IC50 values. Compounds were titrated and IC50's were calculated by 4 parameter sigmoidal curve fitting formula.

T2 sequence (P14902 whole entry): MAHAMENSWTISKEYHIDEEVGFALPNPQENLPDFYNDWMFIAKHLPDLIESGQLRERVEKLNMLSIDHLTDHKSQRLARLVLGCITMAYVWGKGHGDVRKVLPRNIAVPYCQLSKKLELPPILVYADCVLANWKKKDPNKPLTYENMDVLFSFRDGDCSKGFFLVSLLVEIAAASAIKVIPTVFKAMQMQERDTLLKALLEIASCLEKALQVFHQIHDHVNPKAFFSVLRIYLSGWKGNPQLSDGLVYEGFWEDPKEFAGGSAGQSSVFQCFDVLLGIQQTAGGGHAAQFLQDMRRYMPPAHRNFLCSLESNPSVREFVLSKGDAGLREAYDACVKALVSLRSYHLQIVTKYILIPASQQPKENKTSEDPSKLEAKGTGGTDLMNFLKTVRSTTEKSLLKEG
T1 sequence (P48775 whole entry): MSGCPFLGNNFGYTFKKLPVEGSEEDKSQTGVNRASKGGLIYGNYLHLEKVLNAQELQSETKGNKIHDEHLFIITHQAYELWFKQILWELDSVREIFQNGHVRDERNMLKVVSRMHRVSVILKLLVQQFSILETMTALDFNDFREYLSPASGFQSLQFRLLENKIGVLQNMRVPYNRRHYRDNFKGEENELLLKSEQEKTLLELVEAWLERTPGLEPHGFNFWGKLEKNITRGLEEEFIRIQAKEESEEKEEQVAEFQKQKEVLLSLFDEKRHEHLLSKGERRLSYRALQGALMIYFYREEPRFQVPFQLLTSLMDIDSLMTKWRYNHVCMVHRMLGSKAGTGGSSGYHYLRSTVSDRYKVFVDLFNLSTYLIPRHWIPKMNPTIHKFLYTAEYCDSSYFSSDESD

IC50 (TDO) [nM] | IC50 (IDO1 [1]) [nM] | IC50 (IDO1 [2]) [nM] | Structure (SMILES)
≥ 10000 | 2 | 57 | N#Cc1cccc(C(=O)Nc2ccc(C3(C(=O)Nc4ccc(Cl)nc4)CCC3)cc2)c1 [Example 88, N-(4-{1-[(6-chloropyridin-3-yl)carbamoyl]cyclobutyl}phenyl)-3-cyanobenzamide]
≥ 10000 | 3 | 186 | N#Cc1ccc(C(=O)NC2(c3ccc(NC(=O)c4cccc(Cl)c4)cc3)CCC2)cc1 [Example 2, 3-Chloro-N-(4-(1-(4-cyanobenzamido)cyclobutyl)phenyl)benzamide]
≥ 10000 | 2 | 336 | O=C(Nc1ccc(C2(NC(=O)c3ccc(Cl)cc3)CCC2)cc1)c1cccc(Cl)c1 [Example 19, 3-Chloro-N-(4-(1-(4-chlorobenzamido)cyclobutyl)phenyl)benzamide]
≥ 10000 | 4 | 345 | O=C(Nc1ccc(C2(NC(=O)c3ccc(Cl)nc3)CCC2)cc1)c1cccc(Cl)c1 [Example 7, 6-chloro-N-(1-{4-[(3-chlorobenzene-1-carbonyl)amino]phenyl}cyclobutyl)pyridine-3-carboxamide]
≥ 10000 | 30 |  | Cn1ccc(C(=O)NC2(c3ccc(NC(=O)c4cccc(Cl)c4)cc3)CCC2)n1 [Example 13, N-(1-{4-[(3-chlorobenzene-1-carbonyl)amino]phenyl}cyclobutyl)-1-methyl-1H-pyrazole-3-carboxamide]
≥ 10000 | 19 |  | O=C(Nc1ccc(C2(NC(=O)c3ccc(Cl)c(Cl)c3)CCC2)cc1)c1cccc(Cl)c1 [Example 11, 3,4-dichloro-N-(1-{4-[(3-chlorobenzene-1-carbonyl)amino]phenyl}cyclobutyl)benzamide]

The remaining lines, values behind:

Structure (SMILES) | IC50 (TDO) [nM] | IC50 (IDO1 [1]) [nM] | IC50 (IDO1 [2]) [nM]
O=C(Nc1ccc(C2(C(=O)Nc3ccc(F)cn3)CCC2)cc1CO)c1cccc(Cl)c1 [Example 85, 3-chloro-N-[4-{1-[(5-fluoropyridin-2-yl)carbamoyl]cyclobutyl}-2-(hydroxymethyl)phenyl] benzamide] | ≥ 10000 | 5 | 219
CC1CC1NC(=O)C1(c2ccc(NC(=O)c3cccc(Cl)c3)cc2)CCC1 (single isomer, unassigned) [Example 21, 3-chloro-N-(4-(1-((2-methylcyclopropyl)carbamoyl)cyclobutyl)phenyl)benzamide] | ≥ 10000 | 7 | 797
Cn1ccc(NC(=O)C2(c3ccc(NC(=O)c4cccc(Cl)c4)cc3)CCC2)n1 [Example 35, 3-chloro-N-(4-{1-[(1-methyl-1H-pyrazol-3-yl)carbamoyl]cyclobutyl}phenyl)benzamide] | ≥ 10000 | 24 | 1600
O=C(Nc1ccc(C2(C(=O)NC3CCC(F)(F)CC3)CCC2)cc1)c1cccc(Cl)c1 [Example 33, 3-chloro-N-(4-{1-[(4,4-difluorocyclohexyl)carbamoyl]cyclobutyl}phenyl) benzamide] | ≥ 10000 | 15 | 1880
O=C(Nc1ccc(C2(C(=O)N[C@@H]3C[C@H]3C(F)(F)F)CCC2)cc1)c1cccc(Cl)c1 [Example 32] | ≥ 10000 | 12 | 738
CC1(C)CC(NC(=O)C2(c3ccc(NC(=O)c4cccc(Cl)c4)cc3)CCC2)CCO1 (stereo not shown) [Example 42, 3-chloro-N-(4-{1-[(2,2-dimethyloxan-4-yl)carbamoyl]cyclobutyl}phenyl)benzamide] | ≥ 10000 | 119 | 
O=C(Nc1ccc(C2(C(=O)N[C@H]3CCOC3)CCC2)cc1)c1cccc(Cl)c1 [Example 51, 3-chloro-N-[4-(1-{[(3S)-oxolan-3-yl]carbamoyl}cyclobutyl)phenyl]benzamide] | ≥ 10000 | 404 | 
O=C(Nc1ccc(C2(C(=O)Nc3ccc(F)cn3)CCC2)cc1)c1cccc(Cl)c1 [Example 28, 3-chloro-N-(4-{1-[(5-fluoropyridin-2-yl)carbamoyl]cyclobutyl}phenyl)benzamide] | ≥ 10000 | 4 | 253
O=C(Nc1ccc(C2(C(=O)NC3CCCCC3)CCC2)cc1)c1cccc(Cl)c1 [Example 30, 3-chloro-N-{4-[1-(cyclohexylcarbamoyl)cyclobutyl]phenyl} benzamide] | ≥ 10000 | 5 | 795
O=C(Nc1ccc(C2(C(=O)Nc3ccc(F)cc3)CC(F)(F)C2)cc1)c1cccc(Cl)c1 [Example 63, 3-chloro-N-(4-(3,3-difluoro-1-((4-fluorophenyl)carbamoyl)cyclobutyl)phenyl)benzamide] | ≥ 10000 | 2 | 70
O=C(NC1CCCCC1)c1ccc(C2(C(=O)Nc3ccc(F)cn3)CCC2)cc1 [Example 60, N-cyclohexyl-4-{1-[(5-fluoropyridin-2-yl)carbamoyl]cyclobutyl} benzamide] | ≥ 10000 | 489 | 
